Experimental data published in patent US10213451B2, “Methods and compounds for modulating the secretion or expression of adhesion proteins or angiopoietins of cells” (PACIFIC ARROW LIMITED, priority 2004, dated 2019).

Experiments:
Type in all cases: cell-based, human
[1] = test system: angiopoietin expression in ES2 cells; test: Microarray gene expression, Table 12
Experimental: (§1) Y/D is the ratio (in folds) of gene expression in cells treated with compound Y as compared with those of the no drug control (D),
(§2) YM/D is the ratio of gene expression in cells treated with compound YM (ACH-Y, Y without sugar moiety) compared with those of the no drug control (D)
(§3) Cell culture and drug-treatment.: ES2 cells were seeded in a T-25 flask with 4.5 million cells per flask for 24 hours. Cell culture was replaced with fresh medium with xanifolia-Y (Y) or DMSO no drug control (D) for 24 hours. Cells were then harvested for RNA isolation. Three experiments were done.
(§4) RNA extraction, labeling, hybridization, and data analysis. RNA was extracted from tumor cells using the Qiagen RNeasy Kit. RNA quality and quantity was checked by the Agilent BioAnalyzer and the NanoDrop® ND-1000 spectrophotometer respectively before further manipulation. The first and second cDNA strands were synthesized from 20 ng of total RNA using the Affymetrix T7 oligo(dT) primer protocol and kit for the two-cycle amplification. To produce amplified biotin-labeled-cRNA, the cDNA was […] by in vitro transcription using the MegaScript kit from Ambion. 15.0 μg of the labeled cRNA was fragmented and re-checked for concentration using the NanoDrop® ND-1000 spectrophotometer. A hybridization cocktail containing Affymetrix spike-in controls and fragmented labeled cRNA was loaded onto the Human U133 Plus 2.0 GeneChip® oligonucleotide array. The Affymetrix array (Affymetrix, Inc. Santa Clara, Calif.) is comprised of over 1,300,000 unique oligonucleotide features that represent greater than 38,500 well-substantiated human genes. The array was hybridized for 16 hours at 45° C. with rotation at 60 rpm then washed and stained with a strepavidin, R-phycoerythrin conjugate stain on the Affymetrix Fluidicis Station 450. Signal amplification was done using biotinylated antistreptavidin. The arrays were scanned using the GeneChip® 3000 confocal laser scanner with autoloader. The images were analyzed and quality control metrics recorded using Affymetrix GCOS software version 1.4. Lastly, the expression value for each gene was calculated using dChip PM-only model based or Plier algorithm.
(§5) Pairwise comparisons were made as follows: Treated vs. Control (Y vs. D), Modified Drug vs Control (YM/ACY-H vs. D) and Treated vs. Modified Drug (Y vs. YM/ACH-Y) Cel files analyzed using the Bioconductor package of R Statistical programming. Limma analysis generated a reasonable number of changing genes between the samples.
(§6) The raw data in the .CEL files were normalized by the GCRMA method (robust multi-array analysis). It is implemented in Bioconductor (http://www.bioconductor.org/). The raw signal intensity data were normalized, background corrected and summarized based on certain statistical models, and an expression value, in log 2-scale, is obtained per chip per probe set. Then the null hypothesis was tested that there's no significant changes in gene expression between the treatment pairs. This was done by LIMMA and is also implemented in Bioconductor. It uses empirical Bayes method to estimate the variance in gene expression. One comparison was made, namely, High Grade vs. Low Grade. The raw p-values were adjusted by the Benjamnin-Hochberg method for false discovery rate (FDR) control. All data sets contained a significant number of genes with a p-value less than 0.05, which is that the probability that a gene is NOT differential expressed (false positive) is 1:20.

[2] = test system: laminin expression in ES2 cells; test: Microarray gene expression, Table 3; conditions: for LAMC1, gene expression ratio to no drug control (D): probe 200770_s_at
Experimental: as §1, §2, §3, §4, §5, §6

[3] = test system: collagen expression in ES2 cells; test: Microarray gene expression, Table 5
Experimental: as §1, §2, §3, §4, §5, §6

[4] = test system: fibronectin expression in ES2 cells; test: Microarray gene expression, Table 1
Experimental: as §1, §2, §3, §4, §5, §6

[5] = test system: tenascin-C expression in ES2 cells; test: Microarray gene expression, Table 9; conditions: probe 201645_at
Experimental: as §1, §2, §3
RNA extraction, labeling, hybridization, and data analysis. RNA was extracted from tumor cells using the Qiagen RNeasy Kit. RNA quality and quantity was checked by the Agilent BioAnalyzer and the NanoDrop® ND-1000 spectrophotometer respectively before further manipulation. […] The images were analyzed and quality control metrics recorded using Affymetrix GCOS software version 1.4. Lastly, the expression value for each gene was calculated using dChip PM-only model based or Plier algorithm.
Pairwise comparisons were made as follows: Treated vs. Control (Y vs. D), Modified Drug vs Control (YM/ACY-H vs. D) and Treated vs. Modified Drug (Y vs. YM/ACH-Y) Cel files analyzed using the Bioconductor package of R Statistical programming. […]

[6] = test system: RAB3B, member RAS oncogene family protein expression in ES2 cells; test: Microarray gene expression, Table 17
Experimental: as §1, §2, §3, §4, §5, §6

[7] = test system: Fibronectin secretion from skin SK-Mel-5 cells; test: Fibronectin secretion (Western blot), SK-MEL-5 cells; conditions: Homo sapiens, 30 ug/ml

In the case of C/C=C(/C)C(=O)O[C@H]1[C@H](OC(=O)/C(C)=C\C)[C@@]2(CO)C(CC1(C)C)C1=CCC3[C@@]4(C)CC[C@H](O)C(C)(C)C4CC[C@@]3(C)[C@]1(C)[C@@H](O)[C@H]2O (stereo partly shown) [ACH-Y], the “ANGPT2 angiopoietin 2, gene expression ratio to no drug control (D)” value ([1]; probe 205572_at) is reported as 1.4 folds, the “ANGPT1 angiopoietin 1, gene expression ratio to no drug control (D)” value ([1]; probe 205609_at) is reported as −1.2 folds and the “ANGPT2 angiopoietin 2, gene expression ratio to no drug control (D)” value ([1]; probe 211148_s_at) is reported as 1.4 folds. For the same compound, the “ANGPTL4 angiopoietin-like 4, gene expression ratio to no drug control (D)” value ([1]; probe 221009_s_at) was −1.4 folds, the “ANGPTL1 Angiopoietin-like 1, gene expression ratio to no drug control (D)” value ([1]; probe 227533_at) was −2.3 folds and the “LAMC1, gene expression ratio to no drug control (D)” value ([2]; listed as YM) was −1.1 folds. The “LAMC1, gene expression ratio to no drug control (D)” value ([2]; listed as YM/ACH-Y) was 1.1 folds, the “LAMB1 laminin, beta 1, gene expression ratio to no drug control (D)” value ([2]; probe 201505_at) was −2.0 folds and the “LAMA4 laminin, alpha 4, gene expression ratio to no drug control (D)” value ([2]; probe 202202_s_at) was −2.0 folds. For the same compound, the “LAMB1, gene expression ratio to no drug control (D)” value ([2]; probe 211651_s_at) was −1.7 folds, the “LAMB2, gene expression ratio to no drug control (D)” value ([2]; probe 216264_s_at) was −2.0 folds and the “P4HB procollagen-proline, 2-oxoglutarate 4-dioxygenase, beta polypeptide, gene expression ratio to no drug control (D)” value ([3]; probe 200654_at) was −1.3 folds. The “P4HB procollagen-proline, 2-oxoglutarate 4-dioxygenase, beta polypeptide, gene expression ratio to no drug control (D)” value ([3]; probe 200656_s_at) was −1.2 folds, the “PLOD1 procollagen-lysine 1,2-oxoglutarate 5-dioxygenase 1, gene expression ratio to no drug control (D)” value ([3]; probe 200827_at) was −1.2 folds and the “COL6A3 collagen, type VI, alpha 3, gene expression ratio to no drug control (D)” value ([3]; probe 201438_at) was −1.5 folds. The “PLOD3 procollagen-lysine, 2-oxoglutarate 5-dioxygenase 3, gene expression ratio to no drug control (D)” value ([3]; probe 202185_at) was −1.1 folds, the “COL1A1 collagen, type I, alpha 1, gene expression ratio to no drug control (D)” value ([3]; probe 202311_s_at) was −3.6 folds and the “PCOLCE procollagen C-endopeptidase enhancer, gene expression ratio to no drug control (D)” value ([3]; probe 202465_at) was −1.6 folds. For the same compound, the “PLOD2 procollagen-lysine, 2-oxoglutarate 5-dioxygenase 2, gene expression ratio to no drug control (D)” value ([3]; probe 202619_s_at) was −1.2 folds, the “PLOD2 procollagen-lysine, 2-oxoglutarate 5-dioxygenase 2, gene expression ratio to no drug control (D)” value ([3]; probe 202620_s_at) was −1.3 folds and the “P4HA2 procollagen-proline, 2-oxoglutarate 4-dioxygenase, alpha polypeptide II, gene expression ratio to no drug control (D)” value ([3]; probe 202733_at) was −1.9 folds. The “COL5A1 collagen, type V, alpha 1, gene expression ratio to no drug control (D)” value ([3]; probe 203325_s_at) was −2.8 folds, the “P4HA1 procollagen-proline, 2-oxoglutarate 4-dioxygenase, alpha polypeptide I, gene expression ratio to no drug control (D)” value ([3]; probe 207543_s_at) was −1.5 folds and the “COL13A1 collagen, type XIII, alpha 1, gene expression ratio to no drug control (D)” value ([3]; probe 208535_x_at) was −1.2 folds. The “COL18A1 collagen, type XVIII, alpha 1, gene expression ratio to no drug control (D)” value ([3]; probe 209081_s_at) was −1.5 folds, the “COL13A1 collagen, type XIII, alpha 1, gene expression ratio to no drug control (D)” value ([3]; probe 211343_s_at) was −1.7 folds and the “COL13A1 collagen, type XIII, alpha 1, gene expression ratio to no drug control (D)” value ([3]; probe 211809_x_at) was −1.5 folds. The “COL4A2 collagen, type IV, alpha 2, gene expression ratio to no drug control (D)” value ([3]; probe 211966_at) was −1.7 folds, the “COL4A1 collagen, type IV, alpha 1, gene expression ratio to no drug control (D)” value ([3]; probe 211981_at) was −2.2 folds and the “COL6A1 collagen, type VI, alpha 1, gene expression ratio to no drug control (D)” value ([3]; probe 212091_s_at) was −1.9 folds. The “COL5A1 collagen, type V, alpha 1, gene expression ratio to no drug control (D)” value ([3]; probe 212489_at) was −4.1 folds, the “COL4A5 collagen, type IV, alpha 5 (Alport syndrome), gene expression ratio to no drug control (D)” value ([3]; probe 213110_s_at) was −2.2 folds and the “COL6A2 collagen, type VI, alpha 2, gene expression ratio to no drug control (D)” value ([3]; probe 213290_at) was −1.5 folds. For the same compound, the “COL4A6 collagen, type IV, alpha 6, gene expression ratio to no drug control (D)” value ([3]; probe 213992_at) was −1.9 folds, the “COL10A1 collagen, type X, alpha 1, gene expression ratio to no drug control (D)” value ([3]; probe 217428_s_at) was −1.2 folds and the “COL5A2 collagen, type V, alpha 2, gene expression ratio to no drug control (D)” value ([3]; probe 221729_at) was −1.8 folds. The “COL5A2 collagen, type V, alpha 2, gene expression ratio to no drug control (D)” value ([3]; probe 221730_at) was −1.6 folds, the “COL12A1 collagen, type XII, alpha 1, gene expression ratio to no drug control (D)” value ([3]; probe 231766_s_at) was −2.4 folds and the “CCBE1 collagen and calcium binding EGF domains 1, gene expression ratio to no drug control (D)” value ([3]; probe 242324_x_at) was −1.8 folds. The “COL5A1 collagen, type V, alpha 1, gene expression ratio to no drug control (D)” value ([3]; probe 1556138_a_at) was −2.8 folds, the “P4HA2 procollagen-proline, 2-oxoglutarate 4-dioxygenase, alpha polypeptide II, gene expression ratio to no drug control (D)” value ([3]; probe 1568611_at) was −2.4 folds and the “expression ratio to the control, collagen” value ([3]; span over probes of Table 5) was −1.1 to −3.6 folds. The “FN1 fibronectin 1, gene expression ratio to no drug control (D)” value ([4]; probe 210495_x_at) was −1.1 folds, the “FN1 fibronectin 1, gene expression ratio to no drug control (D)” value ([4]; probe 211719_x_at) was −1.2 folds and the “FN1 fibronectin 1, gene expression ratio to no drug control (D)” value ([4]; probe 212464_s_at) was −1.1 folds. The “FN1 fibronectin 1, gene expression ratio to no drug control (D)” value ([4]; probe 216442_x_at) was −1.1 folds, the “TNC Tenascin C (hexabrachion), gene expression ratio to no drug control (D)” value [5] was 1.0 folds and the “RAB3B, member RAS oncogene family, gene expression ratio to no drug control (D)” value ([6]; probe 205924_at) was −1.8 folds. For the same compound, the “RAB3B, member RAS oncogene family, gene expression ratio to no drug control (D)” value ([6]; probe 205925_s_at) was −1.2 folds, the “RAB3B, member RAS oncogene family, gene expression ratio to no drug control (D)” value ([6]; probe 227123_at) was −1.2 folds and the “RAB3B, member RAS oncogene family, gene expression ratio to no drug control (D)” value ([6]; probe 242629_at) was −1.8 folds. The inhibition at 30 µg/mL [7] was 21%.
